≈ marks a conversion by molar mass, not a printed value. Calls of active or inactive are those of the source. The calls are words filed in the database; no cut-off is given here.
Experiments:
[1] = Plasma protein binding in human by reverse phase gradient HPLC analysis; format: ADME, cell-free; details: read-out: PPB (converted)
[2] = system: Plasmodium berghei; assay: Antimalarial activity against Plasmodium berghei ANKA expressing GFP infected in Sprague-Dawley rat assessed as host survival at 30 mg/kg, po administered as single dose measured 6 days post-infection; format: functional, organism-based; parameters: dose 30 mg/kg
[3] = Kinetic solubility of the compound in phosphate buffer after 30 mins by nephelometry at pH 6.5; format: physicochemical; details: read-out: Kinetic_solubility
[4] = system: Plasmodium berghei; assay: Antimalarial activity against Plasmodium berghei ANKA expressing GFP infected in Sprague-Dawley rat assessed as mean survival days of host at 30 mg/kg, po administered as single dose; format: functional
[5] = Partition coefficient, log D of the compound at pH 7.4 by phase gradient HPLC analysis; format: physicochemical; details: octanol/water
[6] = system: Plasmodium berghei; assay: Antimalarial activity against Plasmodium berghei ANKA expressing GFP infected in Sprague-Dawley rat assessed as mean survival days of host at 50 mg/kg, po administered as 4 doses; format: functional
[7] = system: Plasmodium berghei; assay: Antimalarial activity against Plasmodium berghei ANKA expressing GFP infected in Sprague-Dawley rat assessed as reduction in parasitemia at 100 mg/kg, po administered as single dose measured on day 3 post-infection by flow cytometry; format: functional; parameters: scale not given: the % may be the effect or the level left
[8] = system: Plasmodium falciparum; assay: Antimalarial activity against chloroquine-sensitive Plasmodium falciparum NF54 after 24 hrs by hypoxanthine incorporation assay; format: functional, organism-based; details: NF54, 24 h
[9] = system: Plasmodium berghei; assay: Antimalarial activity against Plasmodium berghei ANKA expressing GFP infected in Sprague-Dawley rat assessed as reduction in parasitemia at 50 mg/kg, po administered as 4 doses measured on day 4 post-infection by flow cytometry; format: functional; parameters: scale not given: the % may be the effect or the level left
[10] = Intrinsic clearance in human liver microsomes at 1 uM up to 60 mins; format: ADME, Microsome; details: read-out: CLH
[11] = system: Plasmodium berghei; assay: Antimalarial activity against Plasmodium berghei ANKA expressing GFP infected in Sprague-Dawley rat assessed as mean survival days of host at 100 mg/kg, po administered as single dose; format: functional
[12] = system: Plasmodium berghei; assay: Antimalarial activity against Plasmodium berghei ANKA expressing GFP infected in Sprague-Dawley rat assessed as reduction in parasitemia at 30 mg/kg, po administered as single dose measured on day 3 post-infection by flow cytometry; format: functional; parameters: scale not given: the % may be the effect or the level left
[13] = system: Plasmodium falciparum; assay: Antimalarial activity against chloroquine-resistant Plasmodium falciparum K1 after 24 hrs by hypoxanthine incorporation assay; format: functional, organism-based; details: K1, 24 h
[14] = Half life in human liver microsomes at 1 uM; format: ADME, Microsome
[15] = system: Plasmodium falciparum; assay: Antimalarial activity against ring stage Plasmodium falciparum 3D7 at 1.82 uM after 72 hrs by DAPI-staining based confocal microscopy; format: functional
[16] = system: Plasmodium falciparum; assay: Antimalarial activity against ring stage Plasmodium falciparum Dd2 at 1.82 uM after 72 hrs by DAPI-staining based confocal microscopy; format: functional
[17] = system: Plasmodium berghei; assay: Antimalarial activity against Plasmodium berghei ANKA expressing GFP infected in Sprague-Dawley rat assessed as total cure from parasite at 50 mg/kg, po administered as 4 doses measured on day 30 post-infection by flow cytometry; format: functional, organism-based; parameters: dose 50 mg/kg
[18] = system: Plasmodium berghei; assay: Antimalarial activity against Plasmodium berghei ANKA expressing GFP infected in Sprague-Dawley rat assessed as host survival at 3 mg/kg, po administered as single dose measured 6 days post-infection; format: functional, organism-based; parameters: dose 3 mg/kg
[19] = system: Plasmodium berghei; assay: Antimalarial activity against Plasmodium berghei ANKA expressing GFP infected in Sprague-Dawley rat assessed as mean survival days of host at 3 mg/kg, po administered as single dose; format: functional
[20] = system: Plasmodium berghei; assay: Antimalarial activity against Plasmodium berghei ANKA expressing GFP infected in Sprague-Dawley rat assessed as reduction in parasitemia at 3 mg/kg, po administered as single dose measured on day 3 post-infection by flow cytometry; format: functional; parameters: scale not given: the % may be the effect or the level left
[21] = system: Plasmodium berghei; assay: Antimalarial activity against Plasmodium berghei ANKA expressing GFP infected in Sprague-Dawley rat assessed as mean survival days of host at 10 mg/kg, po administered as single dose; format: functional
[22] = system: Plasmodium berghei; assay: Antimalarial activity against Plasmodium berghei ANKA expressing GFP infected in Sprague-Dawley rat assessed as reduction in parasitemia at 10 mg/kg, po administered as single dose measured on day 3 post-infection by flow cytometry; format: functional; parameters: scale not given: the % may be the effect or the level left

| SMILES | fraction unbound [1] | solubility kinetic at 0.5 h [3] [µg/mL] | chromatographic logD [5] | IC50 [8] [nM] | microsomal CLint at 1 µM [10] [µL/min/mg] | IC50 [13] [nM] | half-life at 1 µM [14] [h] | other results |
| --- | --- | --- | --- | --- | --- | --- | --- | --- |
| CS(=O)(=O)c1ccc(-c2cnc(N)c(-c3ccc(C(N)=O)cc3)c2)cc1 | 0.216 | 25 (≈ 68 µM) | 1.5 | 30 | < 5 | 30 | > 5.83 | Activity [2]: inactive; MSD [4]: 3 days; MSD [6]: 7 days; Activity [7]: 64%; Activity [9]: 66%; MSD [11]: 7 days; Activity [12]: <40% |
| CS(=O)(=O)c1ccc(-c2cnc(N)c(-c3cccc(OC(F)(F)F)c3)c2)cc1 | – | – | – | 190 | – | 180 | – | – |
| CS(=O)(=O)c1ccc(-c2cnc(N)c(-c3cccc(C(=O)NCCO)c3)c2)cc1 | – | – | – | 603 | – | 634 | – | – |
| CS(=O)(=O)c1ccc(-c2cnc(N)c(-c3ccc(C(F)(F)F)cc3Cl)c2)cc1 | – | – | – | 806 | – | 818 | – | – |
| COc1cc(-c2cc(-c3ccc(S(C)(=O)=O)cc3)cnc2N)ccc1O | 0.172 | 6.3 (≈ 17 µM) | 1.9 | 49 | 17 | 49 | 1.72 | Activity [15]: >80%; Activity [16]: >80% |
| Cc1ccc(-c2cc(-c3ccc(S(C)(=O)=O)cc3)cnc2N)cn1 | 0.256 | 50 (≈ 147 µM) | 1.8 | 28 | < 5 | 29 | > 5.83 | Activity [17]: Active; MSD [4]: 8 days; MSD [6]: >30 days; Activity [18]: inactive; Activity [9]: 99.8%; MSD [19]: 3 days; Activity [20]: <40%; Activity [12]: 99.2% |
| COc1ncc(-c2cc(-c3ccc(S(C)(=O)=O)cc3)cnc2N)cn1 | – | – | – | 260 | – | 280 | – | – |
| CS(=O)(=O)c1ccc(-c2cnc(N)c(-c3ccnc(C(F)(F)F)c3)c2)cc1 | – | – | – | 181 | – | 155 | – | – |
| CS(=O)(=O)c1ccc(-c2cnc(N)c(-c3ccc(F)nc3)c2)cc1 | 0.431 | 25 (≈ 72.8 µM) | 1.1 | 640 | < 7 | 500 | 4.12 | – |
| CNC(=O)c1ccc(-c2cc(-c3ccc(S(C)(=O)=O)cc3)cnc2N)cc1 | 0.182 | 25 (≈ 65.5 µM) | 1.7 | 79 | < 5 | 71 | > 5.83 | MSD [4]: 7 days; MSD [6]: 9 days; Activity [7]: 98%; Activity [9]: 99.7%; MSD [11]: 6 days; Activity [12]: 77% |
| CS(=O)(=O)c1ccc(-c2cnc(N)c(-c3ccc(-n4cccn4)cc3)c2)cc1 | – | – | – | 230 | – | 220 | – | – |
| COc1ncc(-c2cc(-c3ccc(S(C)(=O)=O)cc3)cnc2N)cc1Cl | – | – | – | 2230 | – | 2130 | – | – |
| CS(=O)(=O)c1ccc(-c2cnc(N)c(-c3ccc4nonc4c3)c2)cc1 | – | – | – | 470 | – | 520 | – | – |
| CS(=O)(=O)c1ccc(-c2cnc(N)c(-c3ccc(N4CCCC4)nc3)c2)cc1 | – | – | – | 456 | – | 540 | – | – |
| CS(=O)(=O)c1ccc(-c2cnc(N)c(-c3cccnc3)c2)cc1 | – | – | – | 575 | – | 818 | – | – |
| CN(C)CCNC(=O)c1ccc(-c2cc(-c3cc(F)c(F)c(F)c3)cnc2N)cc1 | – | – | – | – | – | – | – | Activity [15]: 50%; Activity [16]: 50% |
| CCN(CC)CCCC(C)Nc1ccnc2cc(Cl)ccc12 (stereo not given) [CHLOROQUINE] | – | – | – | – | – | – | – | MSD [21]: 7 days; MSD [4]: 9 days; MSD [19]: 7 days; Activity [20]: 83%; MSD [11]: 12 days; Activity [22]: 99.5%; Activity [12]: 99.7% |

| SMILES | fraction unbound [1] | solubility kinetic at 0.5 h [3] [µg/mL] | chromatographic logD [5] | IC50 [8] [nM] | microsomal CLint at 1 µM [10] [µL/min/mg] | IC50 [13] [nM] | half-life at 1 µM [14] [h] | other results |
| --- | --- | --- | --- | --- | --- | --- | --- | --- |
| CS(=O)(=O)c1ccc(-c2cnc(N)c(-c3ccc4nccnc4c3)c2)cc1 | – | – | – | 620 | – | 590 | – | – |
| COc1ccc(-c2cnc(N)c(-c3ccc(O)c(OC)c3)c2)cc1 | – | – | – | – | – | – | – | Activity [15]: 50%; Activity [16]: 50% |
| CS(=O)(=O)c1ccc(-c2cnc(N)c(-c3ccc(C#N)cc3)c2)cc1 | – | 1.6 (≈ 4.58 µM) | 2.4 | 160 | < 5 | 150 | > 5.83 | MSD [4]: 10 days; MSD [6]: >30 days; Activity [7]: >99.4%; Activity [9]: 99.7%; MSD [11]: 14 days; Activity [12]: 99.1% |
| Nc1ncc(-c2ccc(Cl)cc2)cc1-c1cccc(CO)c1 | – | – | – | – | – | – | – | Activity [15]: 50%; Activity [16]: 50% |
| Cc1ccc(-c2cc(-c3ccc(S(C)(=O)=O)cc3)cnc2N)cc1C(F)(F)F | 0.031 | 1.6 (≈ 3.94 µM) | 3.6 | 21 | 23 | 19 | 1.25 | – |
| Cc1nc2cc(-c3cc(-c4ccc(S(C)(=O)=O)cc4)cnc3N)ccc2s1 | – | – | – | 390 | – | 330 | – | – |
| CS(=O)(=O)c1ccc(-c2cnc(N)c(-c3ccc(CO)nc3)c2)cc1 | 0.541 | 25 (≈ 70.3 µM) | 1.2 | 171 | < 7 | 169 | > 4.17 | – |
| COc1ncccc1-c1cc(-c2ccc(S(C)(=O)=O)cc2)cnc1N | – | – | – | 1230 | – | 1110 | – | – |
| CS(=O)(=O)c1ccc(-c2cnc(N)c(-c3cnc(N)nc3)c2)cc1 | – | – | – | 120 | – | 120 | – | – |
| CS(=O)(=O)c1ccc(-c2cnc(N)c(-c3cccc(C(F)(F)F)c3)c2)cc1 | 0.059 | 3.1 (≈ 7.9 µM) | 3.3 | 110 | < 7 | 90 | > 4.17 | – |
| CS(=O)(=O)c1ccc(-c2cnc(N)c(-c3ccc(C(F)(F)F)c(F)c3)c2)cc1 | 0.052 | 1.6 (≈ 3.9 µM) | 3.1 | 78 | 14 | 58 | 2.05 | – |
| CS(=O)(=O)c1ccc(-c2cnc(N)c(-c3ccc(OCCN4CCCC4)cc3)c2)cc1 | – | – | – | 2070 | – | 2160 | – | – |
| CS(=O)(=O)c1ccc(-c2cnc(N)c(-c3ccc(S(C)(=O)=O)cc3)c2)cc1 | – | 6.3 (≈ 15.7 µM) | 2 | 80 | < 5 | 80 | > 5.83 | MSD [6]: 15 days; Activity [9]: 99.6% |
| Cc1ccc(-c2cc(-c3ccc(S(C)(=O)=O)cc3)cnc2N)c2cccnc12 | 0.056 | 6.3 (≈ 16.2 µM) | 2.6 | 36 | 16 | 33 | 1.77 | – |
| CS(=O)(=O)c1ccc(-c2cnc(N)c(-c3ccoc3)c2)cc1 | – | – | – | 1130 | – | 1120 | – | – |
| CS(=O)(=O)c1ccc(-c2cnc(N)c(-c3ccc(N4CCOCC4)cc3)c2)cc1 | – | – | – | 2460 | – | 2400 | – | – |

Reference: ChEMBL document CHEMBL2040800 (J Med Chem, 2012)
